Measurements: US8735140B2, “Preservation and composition of bioprocess algae for production of lipids, seedstock, and feed” (Kuehnle AgroSystems, Inc., priority 2008, dated 2014)

System: Dunaliella cells
Experiment: Trehalose loading of Dunaliella, shelf storage and recovery in fresh medium
Type: cell-based, D. salina
Conditions: 0.5 and 1.0 M trehalose
Procedure: First, cells in log phase are spun down at 1500×g for 10 minutes. Supernatant is decanted and the pellet is gently re-suspended in a minimal volume of medium and placed in a 1 L flask. The cell count of the slurry is 1.776×10^8 cells/ml. Next, four 50 ml tubes are prepared with aliquots of 21 ml of slurry in each tube prior to re-suspension, in a defined extracellular concentration of α-trehalose (α-D-glycosyl-α-D-glycosylpyranoside, Hayashibara Co., in Melis medium at a salinity of 1.0 M NaCl (referred to as 1M Melis). The cells are then spun down again and the pellets are re-suspended in 200 ml of treatment medium, that is, 1M Melis with or without added trehalose. The four preservation treatments in 1M Melis are performed in the following four sets in triplicate: no trehalose ([…]), 0.5M trehalose, 1.0M trehalose, and 2.0M trehalose. The cell density after re-suspension is at 1.865×10^7 cells/ml. During the re-suspension of cell pellets in 1M Melis, 2.0M trehalose, the pellet is not completely broken apart, yielding visible clumps in the suspension. After the re-suspension, cells are transferred to 250 ml flasks and left on the shelf at a temperature of 23-27° C. and light Intensity <5 μE/m^2-sec, without any agitation or aeration. […]

## OC[C@H]1O[C@H](O[C@H]2O[C@H](CO)[C@@H](O)[C@H](O)[C@H]2O)[C@H](O)[C@@H](O)[C@@H]1O [trehalose, α-D-glycosyl-α-D-glycosylpyranoside]
4.5-week period, FIG. 3
  Functional recovery: exhibit functional recovery
8-week period, no cell growth observed
  Functional recovery: negligible functional recovery
